The subject of the first assay is GABA binding site / benzodiazepine binding site.
Assay: not given
As to conditions: Tallman et al. 1978; cited from earlier work.
For `CN1CCc2cc3c(cc2C1C1OC(=O)c2c1ccc1c2OCO1)OCO3` (single isomer, unassigned; (-)) [(-) bicuculline], the “block of enhancement of benzodiazepine binding by GABA agonists” value was “much less active”.
With `CN1CCc2cc3c(cc2C1C1OC(=O)c2c1ccc1c2OCO1)OCO3` (single isomer, unassigned; (+)) [(+) bicuculline], the “block of enhancement of benzodiazepine binding by GABA agonists” value was “blocked”.

A further assay deals with GABAa receptor. In words: GABAa receptor binding activity ([3H]-RO15-1788 displacement, rat cortical tissue). As to conditions: 0.5 nM [3H]-RO15-1788, 30 min at 4° C., nonspecific with 1.0 μM diazepam. The procedure: The pharmaceutical utility of compounds of this invention are indicated by the following assay for GABAa receptor binding activity.
Assays are carried out as described in Thomas and Tallman (J. Bio. Chem. 156:9838-9842, J. Neurosci. 3:433-440, 1983). Rat conical tissue is dissected and homogenized in 25 volumes (w/v) of 0.05M Tris HCl buffer (pH 7.4 at 4° C.). The tissue homogenate is centrifuged in the cold (4°) at 20,000×g for 20'. The supernatant is decanted and the pellet is rehomogenized in the same volume of buffer and again centrifuged at 20,000×g. The supernatant is decanted and the pellet is frozen at -20° C. overnight. The pellet is then thawed and rehomogenized in 25 volume (original wt/vol) of buffer and the procedure is carried out twice. The pellet is finally resuspended in 50 volumes (w/vol of 0.05M Tris HCl buffer (pH 7.4 at […]).
Incubations contain 100 μl of tissue homogenate, 100 μl of radioligand 0.5 nM (^3 H-RO15 -1788 [^3 H-Flumazenil] specific activity 80 Ci/mmol), drug or blocker and buffer to a total volume of 500 μl. Incubations are carried for 30 min at 4° C. then are rapidly filtered through GFB filters to separate free and bound ligand. Filters are washed twice with fresh 0.05M Tris HCl buffer (pH 7.4 at 4° C.) and counted in a liquid scintillation counter. 1.0 μM diazepam is added to some tubes to determine nonspecific binding. Data are collected in triplicate determinations, averaged and % inhibition of total specific binding is calculated. Total Specific Binding=Total-Nonspecific. In sonic cases, the amounts of unlabeled drugs is varied and total displacement curves of binding are carried out. Data are converted to a form for the calculation of IC50 and Hill Coefficient (nH).
Turning to `COc1ccc(F)c(-c2ncc3[nH]c4ccccc4n3c2=O)c1` [Compound 2, 2-(2-Fluoro-5-methoxyphenyl)-benzimidazo[1,2-a]pyrazin-1(5H)-one], the IC50 – broadly, the concentration that inhibits the measured activity by half – worked out at 167 nM.
Molecule `COc1cccc(-c2ncc3[nH]c4ccccc4n3c2=O)c1` [Compound 4] gave an IC50 of 61 nM.
Same read-out and setting: the figure for `O=c1c(-c2ccccc2)ncc2[nH]c3ccccc3n12` [Compound 3, 2-Phenyl-benzimidazo[1,2-a]pyrazin-1(5H)-one] is 93 nM.
Same read-out and setting: next, `COc1ccc(-c2ncc3[nH]c4ccccc4n3c2=O)cc1` [Compound 1, 2-(4-Methoxyphenyl)-benzimidazo[1,2-a]pyrazin-1(5H)-one]: 15 nM.

Source of the values: patent US5610299A (priority 1995, dated 1997).
